What was measured:
lactating Holstein cows = assay: Wisconsin Study: dietary monensin fed to lactating cows for 9 weeks; type: in vivo
Protocol: Methods: […] All cows received 11 g/ton Rumensin for a 5-week covariate period after which pens received 1 of 4 dietary treatments (n=3) formulated to provide 0 g/ton (Control, “CON”), 11 g/ton (R11), 14.5 g/ton (R14.5), or 18 g/ton (R18) of Rumensin for 9 weeks. Basal diet was 54% forage and 27% Neutral Detergent Fiber (NDF), 29% starch, and 2.3% Rumen Unsaturated Fatty Acid Load (RUFAL). The pen was the experimental unit, and data were analyzed using the Fit Model Procedure of JMP with treatment as a fixed effect and pen as a random effect. LS-means were determined and contrasts of CON vs. R11, CON vs. R14.5, CON vs. R18, and linear and quadratic effects were tested.

lactating dairy cows = assay: New York/Cornell Study: dietary monensin fed to lactating dairy cows; type: in vivo
Description: Lactating dairy cows were used for the instant example. Methods: One-hundred ninety-two lactating cows (120±50 DIM) were randomly assigned to 12 pens each including 16 cows.

[1] = all treatments, not affected by treatment

For `CC[C@@]1([C@@H]2O[C@@H]([C@H]3O[C@@](O)(CO)[C@H](C)C[C@@H]3C)C[C@@H]2C)CC[C@H]([C@]2(C)CC[C@]3(C[C@H](O)[C@@H](C)[C@@H]([C@@H](C)[C@@H](OC)[C@H](C)C(=O)O)O3)O2)O1` [monensin], the DMI (lactating Holstein cows; R11, 11 g/ton) was 60 lb/d, the “De novo fatty acid yield” value (lactating Holstein cows; R11, 11 g/ton) was 0.99 g/100 g milk and the ECM (lactating Holstein cows; R11, 11 g/ton) was 106 lb/d. For the same compound, the “Estimated Dietary Energy” value (lactating Holstein cows; R11, 11 g/ton) was 1.70 Mcal/kg DM, the “Milk Fat” value (lactating Holstein cows; R11, 11 g/ton) was 4.13% and the “Milk Yield” value (lactating Holstein cows; R11, 11 g/ton) was 98 lb/d. The Protein (lactating Holstein cows; R11, 11 g/ton) was 3.16%, the “Milk fat yield increase vs. CON” value (lactating Holstein cows; R11, 11 g/ton, P=0.04) was 0.08 kg/day and the “ECM/DMI increase vs. CON” value (lactating Holstein cows; R11, 11 g/ton, P=0.05) was 2.9%. For the same compound, the “ECM increase vs CON” value (lactating Holstein cows; R11, 11 g/ton, P=0.09) was 1.3 kg/day, the DMI (lactating Holstein cows; R14.5, 14.5 g/ton) was 60 lb/d and the ECM (lactating Holstein cows; R14.5, 14.5 g/ton) was 105 lb/d. For the same compound, the “Estimated Dietary Energy” value (lactating Holstein cows; R14.5, 14.5 g/ton) was 1.71 Mcal/kg DM, the “Milk Fat” value (lactating Holstein cows; R14.5, 14.5 g/ton) was 4.04% and the “Milk Yield” value (lactating Holstein cows; R14.5, 14.5 g/ton) was 99 lb/d. The Protein (lactating Holstein cows; R14.5, 14.5 g/ton) was 3.14%, the “ECM/DMI increase vs. CON” value (lactating Holstein cows; R14.5, 14.5 g/ton, P=0.02) was 3.5% and the DMI (lactating Holstein cows; R18, 18 g/ton) was 58 lb/d. For the same compound, the ECM (lactating Holstein cows; R18, 18 g/ton) was 102 lb/d, the “Estimated Dietary Energy” value (lactating Holstein cows; R18, 18 g/ton) was 1.73 Mcal/kg DM and the “Milk Fat” value (lactating Holstein cows; R18, 18 g/ton) was 3.97%. For the same compound, the “Milk Yield” value (lactating Holstein cows; R18, 18 g/ton) was 97 lb/d, the Protein (lactating Holstein cows; R18, 18 g/ton) was 3.14% and the “Estimated dietary energy increase vs. CON” value (lactating Holstein cows; R18, 18 g/ton, P=0.01) was 3.0%. The “ECM/DMI increase vs. CON” value (lactating Holstein cows; R18, 18 g/ton, P=0.09) was 2.3%, the DMI (lactating Holstein cows; R18, 18 g/ton, listed as Rumensin) was 26.4 kg/day and the Milk Yield (lactating Holstein cows; [1]) was 44 kg/day. The Milk fat percentage (lactating Holstein cows; [1]) was 4.0%, the Milk protein percentage (lactating Holstein cows; [1]) was 3.2% and the Milk protein yield (lactating Holstein cows; [1]) was 1.4 kg/day. The DMI (lactating dairy cows; R11, 11 g/ton) was 59 lb/d, the ECM (lactating dairy cows; R11, 11 g/ton) was 103 lb/d and the “Estimated Dietary Energy” value (lactating dairy cows; R11, 11 g/ton) was 1.65 Mcal/kg DM. The “Milk Fat” value (lactating dairy cows; R11, 11 g/ton) was 4.67%, the “Milk Yield” value (lactating dairy cows; R11, 11 g/ton) was 88 lb/d and the Protein (lactating dairy cows; R11, 11 g/ton) was 3.38%. For the same compound, the “Energy-corrected milk (ECM)” value (lactating dairy cows; R11 group, 11 g/ton) was 46.9 kg/day, the Milk Yield (lactating dairy cows; R11 group, 11 g/ton) was 39.9 kg/day and the Milk fat yield (lactating dairy cows; R11 group, 11 g/ton) was 1.83 kg/day. The Milk protein yield (lactating dairy cows; R11 group, 11 g/ton) was 1.33 kg/day, the DMI (lactating dairy cows; R14.5, 14.5 g/ton) was 59 lb/d and the ECM (lactating dairy cows; R14.5, 14.5 g/ton) was 104 lb/d. For the same compound, the “Estimated Dietary Energy” value (lactating dairy cows; R14.5, 14.5 g/ton) was 1.65 Mcal/kg DM, the “Milk Fat” value (lactating dairy cows; R14.5, 14.5 g/ton) was 4.71% and the “Milk Yield” value (lactating dairy cows; R14.5, 14.5 g/ton) was 87 lb/d. For the same compound, the Protein (lactating dairy cows; R14.5, 14.5 g/ton) was 3.37%, the “Energy-corrected milk (ECM)” value (lactating dairy cows; R14.5 group, 14.5 g/ton) was 47.1 kg/day and the “FA unsaturation compared to CON” value (lactating dairy cows; R14.5 group, 14.5 g/ton) was “significantly reduced”. For the same compound, the Milk Yield (lactating dairy cows; R14.5 group, 14.5 g/ton) was 39.7 kg/day, the Milk fat yield (lactating dairy cows; R14.5 group, 14.5 g/ton) was 1.85 kg/day and the Milk protein yield (lactating dairy cows; R14.5 group, 14.5 g/ton) was 1.33 kg/day. The DMI (lactating dairy cows; R18, 18 g/ton) was 61 lb/d, the ECM (lactating dairy cows; R18, 18 g/ton) was 103 lb/d and the “Estimated Dietary Energy” value (lactating dairy cows; R18, 18 g/ton) was 1.68 Mcal/kg DM. For the same compound, the “Milk Fat” value (lactating dairy cows; R18, 18 g/ton) was 4.67%, the “Milk Yield” value (lactating dairy cows; R18, 18 g/ton) was 87 lb/d and the Protein (lactating dairy cows; R18, 18 g/ton) was 3.39%. The DMI (lactating dairy cows; R18 group, 18 g/ton) was “increased numerically”, the “Energy-corrected milk (ECM)” value (lactating dairy cows; R18 group, 18 g/ton) was 46.8 kg/day and the “FA unsaturation compared to CON” value (lactating dairy cows; R18 group, 18 g/ton) was “significantly reduced”. It also gave a Milk Yield (lactating dairy cows; R18 group, 18 g/ton) of 39.6 kg/day, a Milk fat yield (lactating dairy cows; R18 group, 18 g/ton) of 1.83 kg/day and a Milk protein yield (lactating dairy cows; R18 group, 18 g/ton) of 1.33 kg/day. The Milk fat percentage (lactating dairy cows; all treatment groups) was “greater than 4.6%”, the “Milk true protein percent” value (lactating dairy cows; all treatment groups) was at least 3.35% and the “Increase in ECM” value (lactating dairy cows; increasing monensin supplementation, non-significant) was 2%.
